Patent US7960369B2, “Receptor function regulator” (Takeda Pharmaceutical Company Limited, priority 2002, dated 2011)

Legend:
[1] = molecular target: T1, human-derived GPR40 (Homo sapiens, UniProt O14842); assay: Reactivity of fatty acid to human-derived GPR40, intracellular calcium by FLIPR in transfected CHO-K1 cells; assay type: cell-based; details: for response (increase in intracellular calcium concentration) of CHO-K1 cell expressing the GPR40 receptor: added at 10^−5M-10^−6M, FLIPR, control-vector cells showed no response; for activity in intracellular calcium ion mobilization assay using CHO cell expressing GPR40 (GPR40 agonistic activity): as stated in Experimental Example 6
T1 construct: expressed in transfected cells; host or cells: CHO-K1, transient transfection with lipofectamine
Experimental: Unless specifically indicated, CHO-K1 cell line was cultured using Ham's F-12 medium (Invitrogen) containing 10% fetal calf serum (Invitrogen). The day before transfection, 4.5×10^5 per 10 cm^2 of cells were seeded, and incubated at 37° C. for not less than 15 hrs in a CO2 incubator adjusted to 5% CO2 concentration. The transfection was performed using a lipofectamine reagent (Invitrogen) and according to the reagent attached method. When a 6-well plate was used for a culture plate, transfection was performed in the following manner. First two 1.5 ml volume tubes were prepared, and 100 μl of Opti-MEM-I medium (Invitrogen) was dispensed. Then, […] of an expression vector was added to one tube and 6 μl of a lipofectamine reagent was added to the other tube. They were mixed and stood still at room temperature for 20 min. A mixed solution for transfection containing this solution and Opti-MEM-I medium (800 μl) was added to CHO-K1 cell previously washed with Opti-MEM-I medium, and incubated in a CO2 incubator for 6 hrs. The incubated cells were rinsed with PBS (Invitrogen), detached with 0.05% trypsin-EDTA solution (Invitrogen), recovered by centrifugation. The obtained cells were counted, diluted such that 5×10^4 cells were contained per 200 μl of the medium, dispensed to black walled 96-well plate (Costar) at 200 μl per well, incubated overnight in a CO2 incubator. Various test samples were added to CHO-K1 cells transiently expressing the receptor by the above-mentioned transfection step, and changes in the intracellular calcium concentration then was measured using FLIPR (Molecular Device). For measurement of changes in intracellular calcium concentration by FLIPR, the following pretreatment was applied. First, an assay buffer for adding fluorescence dye Fluo-3AM (DOJIN) to the cell, or washing the cell immediately before FLIPR assay was prepared. To a solution (hereinafter HBSS/HEPES solution) obtained by adding 20 ml of 1M HEPES (pH 7.4) (DOJIN) to 1000 ml of HBSS (Invitrogen) was added a solution (10 ml) obtained by dissolving probenecid (710 mg, Sigma) in 1N NaOH (5 ml) and adding and mixing with HBSS/HEPES solution (5 ml) and the obtained solution was used as an assay buffer. Then, Fluo-3AM (50 μg) was dissolved in 21 μl of DMSO (DOJIN), and an equal amount of 20% pluronic acid (Molecular Probes) was added. The mixture was added to an assay buffer (10.6 ml) supplemented with 105 μl of fetal calf serum to give a fluorescence dye solution. The medium of the CHO-KL cell after transfection treatment was removed, a fluorescence dye solution was immediately dispensed at 100 μl per well and incubated in a CO2 incubator for 1 hr to incorporate the fluorescence dye into the cell. The incubated cells were washed with the above-mentioned assay buffer and set on FLIPR. The test sample to be added to receptor expressing CHO-KL cell was prepared using the assay buffer and simultaneously set on FLIPR. After the above-mentioned pretreatment, changes in the intracellular calcium concentration after addition of various test samples were measured by FLIPR.

[2] = molecular target: T2, human GPR40 (Homo sapiens, UniProt O14842); assay: Effect of regulation of GPR40 receptor function (agonistic effect), intracellular calcium by FLIPR; assay type: cell-based; details: CHO cell line (No. 104) expressing human GPR40, fluorescence intensity at 30 sec after start of reaction
T2 construct: expressed in transfected cells; host or cells: CHO cell line CHO-hGPR40 No. 104 (pAKKO-111 vector)
Experimental: CHO cell line (No. 104) made to express human GPR40 was diluted such that 3×10^4 cells/100 μL were contained, dispensed to a black walled 96-well plate (Costar) at 100 μL per well, and incubated overnight in a CO2 incubator. The changes in the intracellular calcium concentration were measured using FLIPR (Molecular Device). The method is described in the following.
Fluo-3AM (DOJIN) (50 μg) was dissolved in 21 μl DMSO (DOJIN), and an equal amount of 20% pluronic acid (Molecular Probes) was added and mixed, and the mixture was added to 10.6 ml of an assay buffer [prepared by adding 20 ml of 1M HEPES (pH 7.4) (DOJIN) to 1 L of HBSS (Invitrogen), and adding a mixed solution (10 ml) obtained by dissolving probenecid (Sigma) (710 mg) in 1N NaOH (5 ml) and adding and mixing with the above-mentioned HBSS/HEPES solution (5 ml)] supplemented with 105 μl of fetal calf serum to give a fluorescence dye solution. The medium in the cell plate was removed, a fluorescence dye solution was immediately dispensed at 100 μl per well, and incubated in a CO2 incubator for 1 hr to incorporate fluorescence dye into the cell. The incubated cells were washed with the above-mentioned assay buffer. The compound to be added to the cell was diluted with the assay buffer to each concentration and dispensed to a test sample plate. After the above-mentioned pretreatment, changes in the intracellular calcium concentration after addition of the compound was measured by FLIPR, and the agonistic effect was examined. EC50 value was calculated from a dose response curve based on the changes in the fluorescence intensity value at 30 sec after the start of the reaction.

[3] = test system: mouse pancreatic β cell line MIN6; assay: Promotion of insulin secretion from MIN6 (insulin immunoassay); assay type: cell-based; details: MIN6, KRBH with 22 mM glucose, 90 min
Experimental: (§1) Mouse pancreatic β cell line MIN6 cultured in a flask was detached with PBS containing 2.5 mM EDTA, and seeded and incubated in a 96 well plate for 2 days. The medium used was obtained by adding 15% fetal bovine serum (ThermoTrace), […] 2-mercaptoethanol (Invitrogen), 20 mM HEPES pH 7.3, 100 U/ml penicillin and 100 μg/ml streptomycin to Dulbecco's Modified Eagle Medium (DMEM, Invitrogen) containing 4.5 g/l of glucose. The cells were washed twice with modified Krebs-Ringer bicarbonate buffer (KRBH, 116 mM NaCl, 4.7 mM KCl, 1.2 mM KH2PO4, 1.2 mM MgSO4, 2.5 mM CaCl2, 25 mM NaHCO3, 24 mM HEPES pH 7.3) and preincubated at 37° C. under 5% CO2 conditions for 30 min. Fatty acid diluted and prepared with a buffer obtained by adding 22 mM glucose to the above-mentioned KRBH was added to the cell after preincubation and the cells were incubated at 37° C. under 5% CO2 conditions for 90 min. After incubation, the cell supernatant was recovered and cryopreserved. The insulin content of the supernatant was measured using a commercially available insulin immunoassay kit (Amersham Pharmacia Biotech).
as §1, with “(KBH,” for “(KRBH,”, “The compound” for “Fatty acid”

[4] = test system: siRNA-introduced MIN6 cell; assay: Insulin secretion enhancing activity of fatty acid in siRNA-introduced MIN6; assay type: cell-based, mouse
Experimental: The expression amount of mouse GPR40-GFP was detected by the following enzyme immunoassay. The culture supernatant was discarded, washed with HBSS (Invitrogen), fixed with 0.01% glutaraldehyde (Wako Pure Chemical Industries, Ltd.) for 5 min., and blocked with PBS (TAKARA SHUZO) containing 2% BSA. 500-fold diluted anti-GFP monoclonal antibody 3E6 (NIPPON GENE CO., LTD.) was added and the cells were incubated at room temperature for 2 hrs., washed and 500-fold diluted HRP-labeled anti-mouse IgG antibody (ICN) was added, and the cells were incubated at room temperature for 2 hrs. After washing, TMB microwell peroxydase substrate (Funakoshi) was added and, after incubation for 30 min., sulfuric acid was added to stop the color developing reaction, and the absorbance at 450 nm was measured.
as §1
Insulin secretion enhancing activity in MIN6 cell, into which m40i103 was introduced using HVJ Envelope VECTOR KIT GenomONE based on the method of Experimental Example 5, was examined. The insulin secretion enhancing activity by fatty acid was examined by the method of Experimental Example 6.

T1 sequence (O14842 whole entry): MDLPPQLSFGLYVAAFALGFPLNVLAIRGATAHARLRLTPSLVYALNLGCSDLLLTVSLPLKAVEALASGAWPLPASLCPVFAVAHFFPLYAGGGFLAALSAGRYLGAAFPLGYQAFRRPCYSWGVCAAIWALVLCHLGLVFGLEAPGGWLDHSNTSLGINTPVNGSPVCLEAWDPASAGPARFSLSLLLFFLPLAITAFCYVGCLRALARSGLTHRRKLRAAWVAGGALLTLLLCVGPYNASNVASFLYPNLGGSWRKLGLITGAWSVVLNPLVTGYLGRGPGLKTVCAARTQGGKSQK
T2 sequence (O14842 whole entry): as above

Molecule | response (increase in intracellular calcium concentration) of CHO-K1 cell expressing the GPR40 receptor [1] | EC50 [2] | also measured
CCCCCCCCC#CCC#CCC#CCCCC(=O)O [5.8.11-eicosatriynoic acid] | specifically responds |  | 
CCCCCC#CCC#CCC#CCC#CCCCC(=O)O [5.8.11.14-eicosatetraynoic acid] | specifically responds |  | 
O=C(O)CCc1ccc(OC2CCCc3ccccc32)cc1 (stereo not shown) [Example 2, 4-[(1,2,3,4-tetrahydronaphthalen-1-yl)oxy]benzenepropanoic acid] |  | 170 nM | 
O=C(O)CCc1ccc(OCc2ccc(OCc3ccccc3)cc2)cc1 [Example 6, 4-[[4-(phenylmethoxy)phenyl]methoxy]benzenepropanoic-acid] |  | 160 nM | 
O=C(O)CCc1ccc(OCc2ccc(-c3ccccc3)cc2)cc1 [Example 7, 4-([1,1′-biphenyl]-4-ylmethoxy)benzenepropanoic acid] |  | 130 nM | 
O=C(O)CCc1ccc(OCc2ccccc2)cc1 [Reference Example 2, 4-(phenylmethoxy)benzenepropanoic acid] |  | 320 nM | 
O=C(O)CCc1ccc(OCCCc2ccccc2)cc1 [Reference Example 6, 4-(3-phenylpropoxy)benzenepropanoic acid] |  | 460 nM | 
CN(Cc1ccc(C(=O)Nc2ccc(CCC(=O)O)cc2)cc1)c1nc(-c2ccccc2)cs1 [Reference Example 15, 4-[[4-[[methyl(4-phenyl-2-thiazolyl)amino]methyl]benzoyl]amino]benzenepropanoic acid] |  | 1200 nM | 
CCCCC/C=C\C/C=C\C/C=C\C/C=C\CCCCCC(=O)O [adrenic acid] | specifically responds |  | 
CCCCC/C=C\C/C=C\C/C=C\C/C=C\CCCC(=O)O [arachidonic acid] | specifically responds |  | activity in intracellular calcium ion mobilization assay using CHO cell expressing GPR40 (GPR40 agonistic activity) [1]: remarkable activity; insulin secretion enhancing activity [3]: significant insulin secretion enhancing activity
CCCC(=O)O [butyric acid] |  |  | activity in intracellular calcium ion mobilization assay using CHO cell expressing GPR40 (GPR40 agonistic activity) [1]: no GPR40 agonistic activity; insulin secretion enhancing activity [3]: did not show a significant insulin secretion enhancing activity
CC(C)=CCCC(C)=CCCC(C)=CC(=O)O [farnesoic acid] | specifically responds |  | 
CCCCCCCCCCCC(=O)O [lauric acid] | specifically responds |  | 
CCCCC/C=C\C/C=C\CCCCCCCC(=O)O [linoleic acid] | specifically responds |  | activity in intracellular calcium ion mobilization assay using CHO cell expressing GPR40 (GPR40 agonistic activity) [1]: remarkable activity; insulin secretion enhancing activity of fatty acid ([4]; MIN6 into which GPR40 specific siRNA m40i103 was introduced): no longer showed insulin secretion enhancing activity; insulin secretion enhancing activity of fatty acid ([4]; MIN6 into which random sequence Scramble II duplex siRNA was introduced): retention of the insulin secretion enhancing activity; insulin secretion enhancing activity [3]: significant insulin secretion enhancing activity
CCCCC/C=C\C/C=C\CCCCCCCC(=O)OC [methyl linolate] |  |  | activity in intracellular calcium ion mobilization assay using CHO cell expressing GPR40 (GPR40 agonistic activity) [1]: no GPR40 agonistic activity; insulin secretion enhancing activity [3]: did not show a significant insulin secretion enhancing activity
CC/C=C\C/C=C\C/C=C\CCCCCCCC(=O)O [α-linolenic acid] |  |  | activity in intracellular calcium ion mobilization assay using CHO cell expressing GPR40 (GPR40 agonistic activity) [1]: remarkable activity; insulin secretion enhancing activity [3]: significant insulin secretion enhancing activity
docosatrienoic acid | specifically responds |  | 
eicosadienoic acid | specifically responds |  | 
eicosatrienoic acid | specifically responds |  | 
